Data set [1] deals with calmodulin (Homo sapiens, UniProt P0DP23). Particulars: Schmidt et al. (1990); cited from earlier work.
The test system of data set [2] is HaCaT cells. The data set can be described thus: Keratinocyte morphology, phase contrast microscopy. It is filed as cell-based, human. Particulars: 10 µM, monitored during 72 hours. How it is done: HaCaT cells were cultured under standard conditions. 24 h after plating (2.5 x 10⁶ cells) the medium was replaced by medium containing the test compounds. During 72 hours cell morphology was frequently monitored using a phase contrast photomicroscope (Olympus IMT-2, Tokyo, Japan).

For data set [3], the system named is human polymorphonuclear leukocytes (PMNL). Nature of the data set: ROS generation from PMNL, lucigenin-amplified chemiluminescence. It counts as cell-based. The conditions noted are these: for IC50: Homo sapiens, PMNL. On the procedure: Human PMNL were isolated from fresh blood (anticoagulated with sodium citrate) by erythrocyte sedimentation with 1% dextran (Pharmacia, Uppsala, Sweden) centrifugation of the resulting supernatant, followed by hypoosmotic lysis to remove red blood cells. Washed cells were adjusted to 2 x 10⁶ cells/ml in PBS containing fetal calf serum (2%; v/v). Test compounds dissolved in DMSO were diluted with the assay buffer to a final DMSO concentration of 0.5% (v/v).
Then the test compounds (100 µl) were added with subsequent recording for another 16 min period. […] Results were expressed as percent of inhibition or stimulation of the controls (mean of two integrals) in a single experiment.

For data set [4], the system named is NHEK. Nature of the data set: Keratinocyte proliferation, neutral red assay (number of viable attached cells). The conditions noted are these: Homo sapiens, Ca²⁺ concentration low (0.06 mM), read-out: keratinocyte proliferation IC₅₀ values. It counts as cell-based. How it is done:
(§1) On day 0, 5,000 cells in 100 µl were plated per well in a 96-well cluster plate (Greiner), either in the medium as stated above, or in MCDB153 medium (Clonetics) under low calcium conditions. On day 1 100 µl medium containing increasing concentrations of test agents were added to each well. On day 4, 50 µl of 0.05% neutral red (Gurr) solution in 0.9% NaCl was added per well and the cells were reincubated for 3 h at 37°C. After washing with PBS, the cells were lyzed by addition of 100 µl of 50% ethanol in 0.05 M NaH₂PO₄ per well. After vigorous shaking, the optical extinction was measured at 550 nm. […] Meth., 9: 7). All determinations were performed in octuple. IC₅₀-values (the concentration inhibiting cell numbers by 50%) were determined (µM).

Data set [5] relates to SVK₁₄. The description is as above. It counts as cell-based. The conditions noted are these: Homo sapiens. On the procedure:
as §1

The subject of data set [6] is PKC. Particulars: in-vitro tests; Hegemann et al. (1989); cited from earlier work.
Data set [7] concerns HaCaT cells.
Protocol: HaCaT cells were grown as described.
Cytotoxicity was assessed by measurements of the content of intracellular lactate dehydrogenase (LDH) activity released into the culture medium during 48 h after onset of drug exposure. Possible drug induced detachment of the HaCaT cells from the plate was assessed by collection of the medium from the wells and centrifugation (80 x g, 10 min.) The resulting pellet was suspended in 10 µl medium and cells were counted in a haemocytometer.
Data set [8] concerns HaCaT cells. Nature of the data set: Proliferation of HaCaT cells (incorporation of [3H]-thymidine and [14C]-amino acids, total protein content of attached cells). It is filed as cell-based. The conditions noted are these: Homo sapiens, all parameters measured ([3H]-thymidine, [14C]-amino acids, total protein content), 48 h incubation with compound, read-out: IC₅₀ values, inhibition of proliferation. An excerpt: HaCaT cells are spontaneously immortalized aneuploid human keratinocytes prepared according to J. Cell. Biol. (1988), 106: 761-771. They can be substituted, however, by SVK₁₄ cells [Taylor-Papadimitriou et al. (1982), J. Cell Differentiat. 11: 169-180] or freshly isolated human keratinocytes [Rheinwald and Green (1975), Cell 6: 331-344].
The HaCaT cells (or the other cells) were routinely grown in Dulbecco's modified essential medium (DMEM) supplemented with 1% antibiotic-antimycotic solution, 4 mM L-glutamine and 10% fetal calf serum in culture flasks (T 175; Falcon Labware, Oxuard, CA, USA). Proliferation tests were carried out with passages 90-95 (for HaCaT-cells) and passages 3-6 (for NHEK's) in 24 well plates (Greiner, Solingen, FRG) as described below. All incubations were performed at 37°C in a humidified atmosphere with 10% CO₂. […]
Proliferation of HaCaT cells was assayed by three different parameters: incorporation of [³H]-thymidine, incorporation of [¹⁴C]-amino acids and the increase of protein content of attached cells. […] Thereafter, the filters were treated with 0.5 ml PROTOSOL®-solution (NEN, Bad Homburg, FRG) at 60°C for 1 h and radioactivity was assessed by liquid scintillation counting. […]
For determination of total protein content, cells were washed twice with methanol. […] Concentration of protein was determined spectrophotometrically using bovine serum albumin as a standard. […]

Data set [9] concerns TPA-induced edema and hyperproliferation in mouse skin. The data set can be described thus: Topical application, TPA-induced edema and hyperproliferation in mouse skin. It counts as in vivo, Hairless mice (hr/hr; male). Particulars: with 0.01 wt% TPA. How it is done: Hairless mice (hr/hr; male) were treated on their backs with 10 µl of a 0.01 wt% solution of 12-O-tetradecanoylphorbol-13-acetate (TPA) in a 80/20 mixture of acetone/water, further containing the test substances cyclosporin A, sphingosine or tiflucarbine. Per mouse, 4 application sites were used: one application site was treated with only TPA (control) and one with only vehicle (blanco), two with experimental formulations, according to a roulation scheme. 6 mice were treated per experiment. Skin fold thickness was determined before treatment (t=0) and 6 and 24 h after treatment, as a measure of edema. After 72 h the epidermis (15 mm punch biopsy) was separated with 2 M KBr and dissolved in 0.1 M NaOH for determination of the amount of protein, as a measure of hyperproliferation. In one experiment tiflucarbine was compared with cyclosporin A, in a second experiment with sphingosine.

Molecules are shown by their SMILES. Read-outs that look alike come from different tables or passages of the source.

With `CCN1CCc2[nH]c3cc(F)c4scc(C)c4c3c2C1` [Tiflucarbine, 1-methyl-9-ethyl-4-fluoro-7,8,9,10-tetra:hydro-thieno-[3,2-e]-pyrido-[4,3-b]-indole lactate], the binding to calmodulin entry in [1] is on record as “bind to calmodulin”. Also, the effect on morphology entry in data set [2] is “no effect”. Further, the IC50 in data set [3] (16 min, compound added at peak, 16 min after opsonized zymosan, IC₅₀-values, read-out: Peak CL) was found to be 14 µM; in [3] (30 min preincubation, unstimulated, IC₅₀-values, read-out: Spontaneous CL), 7.2 µM; in data set [3] (stimulation with opsonized zymosan after preincubation, IC₅₀-values, read-out: Induced CL) it was 7.4 µM; in [3] (unstimulated cells and cells stimulated with opsonized zymosan or PMA, read-out: IC₅₀ values, inhibition of ROS generation) it was 7 µM; in data set [4], 10 µM; in [5] (SVK₁₄, Ca²⁺ concentration normal (1.6 mM), read-out: keratinocyte proliferation IC₅₀ values) it was 12.5 µM. For the same compound, the IC50 in [5] (read-out: keratinocyte proliferation IC₅₀ values, SVK₁₄, Ca²⁺ concentration low (0.06 mM)) was 7.5 µM; in [8] it was 10 to 17 µM. In addition, the “inhibition of peak chemiluminescence to 50%, fold higher concentrations” value in [3] (both stimuli (opsonized zymosan, PMA), relative to the IC₅₀ of 7 µM) is on record as 2-3 fold. In addition, the “induction of the release of reactive oxygen species” value in data set [3] (human PMNL, unstimulated) is listed as “does not induce the release”. In data set [6], the PKC activity result is on record as “significantly inhibit PKC activity”. Besides, the toxic concentration entry in data set [7] was “above 300 µM”. The “edema (skin fold thickness)” value in [9] (6 and 24 h after treatment) was “reduces edema at 0.5, 1 and 2.5%”. The “hyperproliferation (amount of epidermal protein)” value in data set [9] (after 72 h) is “reduces hyperproliferation only at 1 and 2.5%”.

The values are drawn from patent EP0499337A1, “Use of tetra:hydro-thieno-pyrido-indole derivatives for the treatment of skin disorders” (YAMANOUCHI EUROPE B.V., priority 1991, dated 1992).
